In publication PMC13242511, “Disrupting Notch signalling by a small molecule inhibiting dihydroorotate dehydrogenase activity” (Scientific Reports, 2026):
Read-outs that look alike come from different tables or passages of the source.

What was measured:
Notch signalling = assay: Notch reporter assay (12xCSL firefly luciferase / renilla luciferase, HEK293T Notch1ΔE reporter cell line clone #A1-11); type: cell-based; set-up: AUC Notch: scale not given here; details: for activity: 1,25µM; for AUC Notch: area under the 14-point dose-response curve; for concentrations associated with cytotoxicity (high dose-points removed): extended dose range, Supplemental Fig. 7B; for Bottom (Emax): Emax indicated independent from assay constraints, in % (unit assumed)
Method in brief: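 Compounds at two-fold concentration in 10 µl medium were brought to one-fold by adding 10 µl holding 4000 Notch reporter cells (clone #A1-11) per well of a 384-well plate. After 24 h, Promega dual-GLO firefly and renilla luciferase were read on a SpectraMaxi3. Dose-response curves were fitted with a log(inhibitor) vs. response variable-slope model.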

γ-secretase complex = γ-secretase complex (Homo sapiens, UniProt P49768); assay: APP-C99 counter assay (GSI reporter assay); type: cell-based; set-up: AUC APP: scale not given here; details: for remaining activity at 10 µM / remaining activity at 25 µM / remaining activity at […]: APP-C99 counter assay, read-out: 3p-DR in % of DMSO counter; for remaining activity at […]: 1,25µM; for AUC APP: area under the 14-point dose-response curve, replicates averaged; for Hill-slope: 14p APP assay DR, bottom constrained to Emax of positive control LY-411575
Method in brief: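 γ-secretase activity reported via APP cleavage driving firefly luciferase, normalized to renilla. After 24 h transfection then 24 h compound exposure, signals were read (0.1 s integration). Triplicate dose–responses fitted by variable-slope four-parameter model for IC50; area under curve also derived.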

[1] = Homo sapiens, HEK-293T, 14-point dose-response, Fig. 4, read-out: approximated IC50, Notch reporter assay
[2] = Homo sapiens, HEK-293T, 14-point, unit inferred, replicates averaged, read-out: approxiated IC50s 14p Notch reporter assay
[3] = Homo sapiens, HEK-293T, 14p Notch assay DR, bottom constrained to Emax of positive control DAPT, read-out: approximated IC50
[4] = Homo sapiens, HEK-293T, 14p Notch assay DR, bottom constrained to Emax of positive control RO4929097, read-out: approximated IC50
[5] = Homo sapiens, HEK-293T, 14p Notch assay DR, log10 value, bottom constrained to Emax of positive control DAPT, read-out: approximated LogIC50 (converted)
[6] = Homo sapiens, HEK-293T, 14p Notch assay DR, log10 value, bottom constrained to Emax of positive control RO4929097, read-out: approximated LogIC50 (converted)
[7] = Homo sapiens, HEK-293T, 10 µM, primary screen, 24 h, unit from Fig. 2 legend, read-out: Primary screen at 10 µM (Notch reporter signal)
[8] = Homo sapiens, HEK-293T, 10 µM, three-dose confirmation screen, unit from Fig. 2 legend, read-out: Hit confirmation at 10 µM (Notch reporter signal)
[9] = Homo sapiens, HEK-293T, 10 µM, sheet conf vs counter 10 µM, same values as 3-point DR confirmation screen, read-out: Confirmation screen
[10] = Homo sapiens, HEK-293T, 25 µM, Notch reporter 3-point dose-confirmation assay, sheet "conf vs counter 25 µM", read-out: Confirmation screen
[11] = Homo sapiens, HEK-293T, 3-point DR confirmation screen, Notch reporter assay, read-out: inhibitor ratio in % of DMSO in 3 point DR
[12] = Homo sapiens, HEK-293T, 10µM, 3-point DR confirmation screen, Notch reporter assay, read-out: inhibitor ratio in % of DMSO in 3 point DR
[13] = Homo sapiens, HEK-293T, 25µM, 3-point DR confirmation screen, Notch reporter assay, read-out: inhibitor ratio in % of DMSO in 3 point DR

| SMILES | IC50 (Notch signalling; [1]) | IC50 (Notch signalling; [2]) | IC50 (Notch signalling; [3]) | IC50 (Notch signalling; [4]) | IC50 (Notch signalling; [5]) | IC50 (Notch signalling; [6]) | activity at 10 µM (Notch signalling; [7]) | activity at 10 µM (Notch signalling; [8]) | activity at 10 µM (Notch signalling; [9]) | activity at 25 µM (Notch signalling; [10]) | activity (Notch signalling; [11]) | AUC Notch (Notch signalling; replicates averaged) | concentrations associated with cytotoxicity (high dose-points removed) (Notch signalling) | remaining activity at 10 µM (γ-secretase complex; 24 h) | remaining activity at 25 µM (γ-secretase complex; 24 h) | remaining activity at […] (γ-secretase complex; 24 h) | AUC APP (γ-secretase complex) | Hill slope, Notch reporter assay (Notch signalling; 14-point dose-response) | activity at 10 µM (Notch signalling; [12]) | activity at 25 µM (Notch signalling; [13]) | also measured |
| --- | --- | --- | --- | --- | --- | --- | --- | --- | --- | --- | --- | --- | --- | --- | --- | --- | --- | --- | --- | --- | --- |
| Cc1ccc2[nH]c3c(c2c1)CCOC31CCN(Cc2ccccc2-c2ccccc2)CC1 [compound B] | 0.9 µM | 0.91 µM | 1.2 µM | 0.59 µM | 1.26 µM | 0.631 µM | 60.8% | 65% | 65% | 69.3% | 79.7% | 573.0 | higher than 5 µM | 113% | 149% | 100% | 643.8 |  |  |  |  |
| COc1cccc(CNc2ccc(N3CCCCC3)cc2)c1OCc1cccs1 [compound C] |  | 1.2 µM |  |  | 1.26 µM |  | 50.1% | 66.2% | 66.2% | 65.1% | 61.8% | 584.0 | higher than 12.5 µM | 150% | 152% | 157% | 731.3 | -16.2 | 66.2% | 65.1% | Bottom (Emax) (Notch signalling; 14p Notch assay DR): 45.4; IC50 (Notch signalling; Homo sapiens, HEK-293T, dose range 50 µM-2.5 nM, Fig. 7E, read-out: IC50, Notch reporter activity): 0.15 µM; Notch assay (Notch signalling; overview in comparison to compound C, Supplemental Fig. 9): nanomolar potency; Hill-slope (γ-secretase complex): 0.0377; activity at 10 µM (γ-secretase complex; 24 h, 10 µM, sheet conf vs counter 10 µM, read-out: Counter screen (Hek APP-C99)): 150% |
| NC(=O)c1c(NC(=O)NCc2cccnc2)sc2c1CCC2 [compound D] | 1 µM | 0.78 µM | 1.3 µM | 0.23 µM | 1.58 µM | 0.251 µM | 44.7% | 47% | 47% | 55.6% | 91% | 273.0 | higher than 12.5 µM | 119% | 134% | 78% | 449.6 | -1.7 | 47% | 55.6% | Hill-slope (γ-secretase complex; listed as CBK307578): 0.0595 |
| Cc1nn(-c2nc3ccccc3s2)c(O)c1C1OC(=O)c2ccccc21 (stereo not shown) [compound E] | 0.73 µM |  |  |  | 0.794 µM |  | 45% | 38% | 38% | 35.2% | 37.1% | 577.0 |  | 80.7% | 81.7% | 83.7% | 684.1 |  | 38% | 35.2% | IC50 (Notch signalling; 14-point dose-response, Fig. 4, read-out: approximated IC50, Notch reporter assay): 0.7 µM; Bottom (Emax) (Notch signalling; 14p Notch assay DR): 54.2; Hill-slope (γ-secretase complex): -0.00246 |
